Measurements: US6599893B2, “Cephalosporin antibiotics and prodrugs thereof” (Essential Therapeutics, Inc., priority 2000, dated 2003)
Converted amounts (≈) assume the structure as drawn. Like-named read-outs stand apart in the source and are kept apart here.

Columns and labels:
[1] = tested on: Staphylococcus aureus Smith (MSSA); assay: Broth microdilution MIC, S. aureus Smith; type: cell-based; conditions: Staphylococcus aureus Smith (MSSA)
In short: (§1)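 Broth microdilution per NCCLS M7-A3 (1993) guidelines. MIC taken as the lowest compound concentration preventing bacterial growth.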

[2] = tested on: Staphylococcus aureus ATCC 29213 (MSSA); assay: Broth microdilution MIC, S. aureus ATCC 29213; type: cell-based; conditions: Staphylococcus aureus ATCC 29213 (MSSA)
In short: as §1

[3] = tested on: Staphylococcus aureus COL (MRSA, non-β-lactamase producing); assay: Broth microdilution MIC, S. aureus COL; type: cell-based; conditions: Staphylococcus aureus COL (MRSA, non-β-lactamase producing)
In short: as §1

[4] = tested on: Staphylococcus aureus 76 (MRSA, β-lactamase producing); assay: Broth microdilution MIC, S. aureus 76; type: cell-based; conditions: Staphylococcus aureus 76 (MRSA, β-lactamase producing)
In short: as §1

[5] = tested on: Enterococcus faecalis ATCC 29212; assay: Broth microdilution MIC, E. faecalis ATCC 29212; type: cell-based; conditions: Enterococcus faecalis ATCC 29212
In short: as §1

[6] = tested on: Enterococcus faecium ATCC 35667; assay: Broth microdilution MIC, E. faecium ATCC 35667; type: cell-based; conditions: Enterococcus faecium ATCC 35667
In short: as §1

[7] = tested on: S. aureus strain Smith; assay: Experimental infection of mice, ED50; type: in vivo, Swiss-Webster mice; conditions: 50% efficacious dose, S. aureus Smith, mice challenged intraperitoneally, compound subcutaneously at 0 and 2 h, total dose, 72 h survival
Method: Staphylococcus aureus strain Smith (ATCC 13709, penicillin-susceptible) or strain 76 (methicillin-resistant) was cultured overnight at 37° C. in brain-heart infusion broth (BHIB). The following morning, a portion of the culture was transferred to fresh BHIB and incubated for an additional 4-5 hours at 37° C. The cells were harvested by centrifugation, washed twice with PBS, and adjusted to the desired inoculum amount. The cell suspension was mixed with an equal volume of sterile 14% hog-gastric mucin (Comber K. R.; Osborne C. D.; Sutherland R.: Comparative effects of amoxicillin and ampicillin in the treatment of experimental mouse infections. Antimicrobial Agents and Chemotherapy 7(2):179-185, 1975). The inoculum was kept in an ice bath until used (preferably in less than one hour).
Male Swiss-Webster mice were challenged intraperitoneally with 0.5 mL of a bacterial suspension of S. aureus strain Smith (LD50). Test compounds were administered subcutaneously in 0.1 mL volumes immediately after inoculation and 2 hours later. […] The total dose associated with 50% survival (ED50) was determined using the probit method (Pasiello, A. P., J. M. Essigmann, and G. N. Wogan.: Rapid and accurate determination of median lethal dose (LD50) and its error with a small computer. J Toxicol. Environ. Health. 3:797-809, 1977).

[8] = Human serum binding by ultrafiltration; type: in vitro ADME
[9] = Human serum binding estimated from serum effect on MIC (HSB*); type: in vitro ADME
Source text: An estimate of human serum binding (HSB*) was obtained for some compounds using the MIC values against S. aureus ATCC 29213 determined in growth medium (GM) and in a 1:1 mixture of growth medium and human serum (GM+HS):
HSB*=(MICGM+HS−MICGM)/MICGM 100%

Row | HSB, human serum binding ([8]; pooled human serum, ultrafiltration, 10 minutes at 37° C.) [%] | HSB*, human serum binding calculated using serum effect on MIC ([9]; MIC against S. aureus ATCC 29213 in growth medium vs 1:1 growth medium and human serum) [%] | SMILES | MIC S. a. Smith [1] [µg/mL] | MIC S. a. 29213 [2] [µg/mL] | MIC S. a. COL [3] [µg/mL] | MIC S. a. 76 [4] [µg/mL] | MIC E. f. 29212 [5] [µg/mL] | MIC E. f. 35667 [6] [µg/mL] | ED50, mg/kg (95% C.I.) [7] | HSB, human serum binding [8] [%] | HSB*, human serum binding calculated using serum effect on MIC [9] [%]
1 |  |  | NC(=O)CSCc1cnccc1SC1=C(C(=O)O)N2C(=O)[C@@H](NC(=O)/C(=N\O)c3nc(N)sc3Cl)[C@H]2SC1 [Compound 22] | 0.25 (≈ 0.406 µM) | 0.5 (≈ 0.812 µM) | 4 (≈ 6.49 µM) | 4 (≈ 6.49 µM) | 0.5 (≈ 0.812 µM) | 1 (≈ 1.62 µM) | 1.15 (0.7-1.6) mg/kg | 94 | 88
2 | 84 | 67 | NCCSCc1cnccc1SC1=C(C(=O)O)N2C(=O)[C@@H](NC(=O)/C(=N\O)c3nc(N)sc3Cl)[C@H]2SC1 [RWJ 54428, reference compound] | 0.125 (≈ 0.208 µM) | 0.25 (≈ 0.415 µM) | 0.5 (≈ 0.83 µM) | 1 (≈ 1.66 µM) | 0.06 (≈ 0.0996 µM) | 0.25 (≈ 0.415 µM) | 1.0 (0.7-1.6) mg/kg |  | 
